Experimental data from EP1586565A1, “Substituted polycyclic aryl and heteroaryl pyrazinones useful for selective inhibition of the coagulation cascade” (Pharmacia Corporation, priority 1999, dated 2000).

Biological target: T1, Human factor Xa (Homo sapiens, UniProt P00742)
T1 construct: leads from XII to XIIa to XIa to IXa and to the conversion of X to Xa; purchased Enzyme Research Laboratories, South Bend IN
Test: Xa Assay
Format: biochemical
Details: 100 µM

T1 sequence (P00742 235-488 limits assumed): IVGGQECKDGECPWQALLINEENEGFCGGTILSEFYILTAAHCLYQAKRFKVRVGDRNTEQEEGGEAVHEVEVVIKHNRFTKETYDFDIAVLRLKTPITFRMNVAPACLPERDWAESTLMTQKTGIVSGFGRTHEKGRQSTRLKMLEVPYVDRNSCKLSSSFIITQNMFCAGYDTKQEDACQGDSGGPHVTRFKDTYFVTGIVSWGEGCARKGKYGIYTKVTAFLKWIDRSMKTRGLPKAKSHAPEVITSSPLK
T1 sequence (P00742 41-179 limits assumed): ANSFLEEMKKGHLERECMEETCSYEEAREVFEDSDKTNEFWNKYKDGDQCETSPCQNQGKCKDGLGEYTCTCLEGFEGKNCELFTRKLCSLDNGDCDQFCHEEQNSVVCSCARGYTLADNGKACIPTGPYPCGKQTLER

| SMILES | % Inhibition Factor Xa (100 µM) [%] |
| --- | --- |
| O=C(Cn1c(-c2ccc(-c3ccccc3)cc2)c(Cl)nc(NCc2ccccc2)c1=O)NCCc1ccncc1 [Example E-0109] | 3 |
| O=C(Cn1c(-c2ccc(Cl)cc2)c(Cl)nc(NCc2ccccc2)c1=O)NCCc1ccncc1 [Example E-0025] | 0 |
| O=C(Cn1c(-c2ccc(Cl)cc2)c(Cl)nc(NCCc2cccc(Cl)c2)c1=O)NCCc1ccncc1 [Example E-0027] | 0 |
| COc1ccc(-c2c(Cl)nc(NCCc3cccc(Cl)c3)c(=O)n2CC(=O)NCCc2ccncc2)cc1 [Example E-0035] | 0 |
| O=C(Cn1c(-c2cccc(Cl)c2)c(Cl)nc(NCCc2ccccc2)c1=O)NCCc1cccnc1 [Example E-0089] | 4 |
| COc1ccc(-c2c(Cl)nc(NCCc3ccc(Cl)cc3)c(=O)n2CC(=O)NCCc2ccncc2)cc1 [Example E-0106] | 3 |
| O=C(Cn1c(-c2cccc(Cl)c2)c(Cl)nc(NCc2ccccc2)c1=O)NCCc1cccnc1 [Example E-0086] | 4 |
| O=C(Cn1c(-c2ccc(Cl)cc2)c(Cl)nc(NCc2ccncc2)c1=O)NCCc1ccncc1 [Example E-0032] | 0 |
| O=C(Cn1c(-c2cccc(Cl)c2)c(Cl)nc(NCCc2cccc(Cl)c2)c1=O)NCCc1cccnc1 [Example E-0092] | 3 |
| O=C(Cn1c(-c2ccc(-c3ccccc3)cc2)c(Cl)nc(NCCc2ccc(Cl)cc2)c1=O)NCCc1ccncc1 [Example E-0118] | 3 |
| O=C(Cn1c(-c2ccc(Cl)cc2)c(Cl)nc(NCCc2ccc(Cl)cc2)c1=O)NCCc1ccncc1 [Example E-0020] | 1 |
| COc1ccc(-c2c(Cl)nc(NCCc3cccc(Cl)c3)c(=O)n2CC(=O)NCCc2ccncc2)cc1 [Example E-0103] | 3 |

Same assay, conditions: % inhibition at 30 µM (cells with % or %@30, bare 0)

| SMILES | IC50 or % Inhibition Factor Xa (30 µM) [%] |
| --- | --- |
| C[C@@H](C(=O)NCc1ccc(C(=N)N)cc1)n1c(-c2ccccc2)c(Cl)nc(NC2CCC2)c1=O [1517-09] | 0 |
| COc1ccc(CCNc2nc(Cl)c(-c3ccccc3)n(CC(=O)NCc3ccc(C(=N)N)cc3)c2=O)cc1OC [1512-05] | 10 |
| N=C(N)c1ccc(CNC(=O)Cn2c(-c3ccccc3)c(Cl)nc(NCc3c(F)cccc3F)c2=O)cc1 [1512-43] | 9 |
| N=C(N)c1ccc(CNC(=O)Cn2c(-c3ccccc3O)c(Cl)nc(NC3CCC3)c2=O)cc1 [Example 66] | 0 |
| COc1cccc(CNc2nc(Cl)c(-c3ccccc3)n(CC(=O)NCc3ccc(C(=N)N)cc3)c2=O)c1OC [1512-02] | 3 |
| CC1CCCC(Nc2nc(Cl)c(-c3ccccc3)n(CC(=O)NCc3ccc(C(=N)N)cc3)c2=O)C1C (stereo not drawn) [1512-23] | 6 |
| N=C(N)c1ccc(CNC(=O)Cn2c(-c3ccccc3)c(Cl)nc(NCCN3CCOCC3)c2=O)cc1 [1471-12] | 9 |
| N=C(N)c1ccc(CNC(=O)Cn2c(-c3ccccc3)c(Cl)nc(NC(c3ccccc3)c3ccccc3)c2=O)cc1 [1507-35] | 28 |
| CC(C)Nc1nc(Cl)c(-c2cccc(C(=O)O)c2)n(CC(=O)NCc2ccc(C(=N)N)cc2)c1=O [Example 65] | 12 |
| CSCC(C(=O)NCc1ccc(C(=N)N)cc1)n1c(-c2ccccc2)c(Cl)nc(NCCc2ccccc2)c1=O (stereo not drawn) [1517-16] | 0 |
| Cc1c(Cl)nc(NCCc2ccccc2)c(=O)n1CC(=O)NCc1ccc(C(=N)N)cc1 [1471-7] | 4 |
| N=C(N)c1ccc(CNC(=O)Cn2c(-c3ccccc3)c(Cl)nc(NCc3cc(F)c(F)c(F)c3)c2=O)cc1 [1512-32] | 5 |
| N=C(N)c1ccc(CNC(=O)Cn2c(-c3ccccc3)c(Cl)nc(NCc3ccccc3OC(F)(F)F)c2=O)cc1 [1512-42] | 1 |
| C[C@H](C(=O)NCc1ccc(C(=N)N)cc1)n1c(-c2ccccc2)c(Cl)nc(NC2CCC2)c1=O [1517-11] | 0 |
| N=C(N)c1ccc(CNC(=O)Cn2c(-c3ccccc3)c(Cl)nc(NCCCn3ccnc3)c2=O)cc1 [1507-05] | 10 |
| N=C(N)c1ccc(CNC(=O)Cn2c(-c3ccccc3)c(Cl)nc(NCC3COc4ccccc4O3)c2=O)cc1 (stereo not drawn) [1512-01] | 4 |
| CCc1c(Cl)nc(NCCc2ccc(Cl)cc2)c(=O)n1CC(=O)NCc1ccc(C(=N)N)cc1 [1471-58] | 0 |
| Cc1c(Cl)nc(NCc2ccncc2)c(=O)n1CC(=O)NCc1ccc(C(=N)N)cc1 [1471-3] | 0 |
| CN(C)CCCNc1nc(Cl)c(-c2ccccc2)n(CC(=O)NCc2ccc(C(=N)N)cc2)c1=O [1507-47] | 19 |
| N=C(N)c1ccc(CNC(=O)Cn2c(-c3ccccc3)c(Cl)nc(NC3CCS(=O)(=O)C3)c2=O)cc1 (stereo not drawn) [1512-19] | 3 |
| C[Si](C)(C)CNc1nc(Cl)c(-c2ccccc2)n(CC(=O)NCc2ccc(C(=N)N)cc2)c1=O [1517-36] | 0 |
| N=C(N)c1ccc(CNC(=O)Cn2c(-c3ccccc3)c(Cl)nc(NCCc3ccccn3)c2=O)cc1 [1512-47] | 13 |
| N=C(N)c1ccc(CNC(=O)Cn2c(-c3ccccc3)c(Cl)nc(NCc3cc(Cl)ccc3Cl)c2=O)cc1 [1512-35] | 4 |
| CC(C)Nc1nc(Cl)c(-c2cc(N)ccc2F)n(CC(=O)NCc2ccc(C(=N)N)cc2F)c1=O [compound 73] | 0 |
| N=C(N)c1ccc(CNC(=O)Cn2c(-c3ccc4c(c3)OCO4)c(Cl)nc(NCCc3cccnc3)c2=O)cc1 [1471-48] | 17 |
| COc1ccc(-c2c(Cl)nc(NCCc3ccc(Cl)cc3)c(=O)n2CC(=O)NCc2ccc(C(=N)N)cc2)cc1 [1471-34] | 24 |
| Cc1c(Cl)nc(NCCc2cccc(Cl)c2)c(=O)n1CC(=O)NCc1ccc(C(=N)N)cc1 [1471-6] | 14 |

| SMILES | IC50 or % Inhibition Factor Xa (30 µM) [%] |
| --- | --- |
| N=C(N)c1ccc(CNC(=O)Cn2c(-c3ccsc3)c(Cl)nc(NCCc3ccccc3)c2=O)cc1 [1517-13] | 0 |
| N=C(N)c1ccc(CNC(=O)Cn2c(-c3ccccc3)c(Cl)nc(NCc3ccccc3)c2=O)cc1 [1471-9] | 29 |
| N=C(N)c1ccc(CNC(=O)Cn2c(-c3ccccc3)c(Cl)nc(NCc3ccccc3Cl)c2=O)cc1 [1507-03] | 21 |
| N=C(N)c1ccc(CNC(=O)Cn2c(-c3c(Cl)cccc3Cl)c(Cl)nc(NCCc3cccc(Cl)c3)c2=O)cc1 [1517-24] | 0 |
| N=C(N)c1ccc(CNC(=O)Cn2c(-c3ccccc3)c(Cl)nc(NCCc3cccc(C(F)(F)F)c3)c2=O)cc1 [1512-41] | 4 |
| N=C(N)c1ccc(CNC(=O)Cn2c(-c3cccc(Cl)c3)c(Cl)nc(NCCc3cccnc3)c2=O)cc1 [1471-32] | 25 |
| N=C(N)c1ccc(CNC(=O)Cn2c(-c3cccc(Cl)c3)c(Cl)nc(NCc3ccccc3)c2=O)cc1 [1471-25] | 31 |
| CN1CCCC1CCNc1nc(Cl)c(-c2ccccc2)n(CC(=O)NCc2ccc(C(=N)N)cc2)c1=O (stereo not drawn) [1512-46] | 10 |
| N=C(N)c1ccc(CNC(=O)Cn2c(-c3ccccc3)c(Cl)nc(NC3CCS(=O)(=O)C3)c2=O)cc1 (stereo not drawn) [1507-36] | 0 |
| N=C(N)c1ccc(CNC(=O)Cn2c(-c3cccc(Cl)c3)c(Cl)nc(NCc3ccncc3)c2=O)cc1 [1471-27] | 16 |
| N=C(N)c1ccc(CNC(=O)Cn2c(-c3ccccc3)c(Cl)nc(NCCCc3ccccc3)c2=O)cc1 [1512-06] | 4 |
| N=C(N)c1ccc(CNC(=O)Cn2c(-c3cccc(Cl)c3)c(Cl)nc(NCCN3CCOCC3)c2=O)cc1 [1471-28] | 8 |
| CC(C)CCNc1nc(Cl)c(-c2ccccc2)n(CC(=O)NCc2ccc(C(=N)N)cc2)c1=O [1517-40] | 0 |
| C[C@@H](C(=O)NCc1ccc(C(=N)N)cc1)n1c(-c2ccccc2)c(Cl)nc(NCc2ccccc2)c1=O [1517-03] | 0 |
| N=C(N)c1ccc(CNC(=O)Cn2c(-c3ccccc3)c(Cl)nc(NCc3ccc(Cl)cc3)c2=O)cc1 [1507-46] | 8 |
| CSCC(C(=O)NCc1ccc(C(=N)N)cc1)n1c(-c2ccccc2)c(Cl)nc(NCc2ccccc2)c1=O (stereo not drawn) [1517-04] | 0 |
| Cc1c(Cl)nc(NCCc2ccncc2)c(=O)n1CC(=O)NCc1ccc(C(=N)N)cc1 [1471-5] | 12 |
| N=C(N)c1ccc(CNC(=O)Cn2c(-c3ccsc3)c(Cl)nc(NC3CCC3)c2=O)cc1 [1517-07] | 0 |
| N=C(N)c1ccc(CNC(=O)Cn2c(-c3ccccc3)c(Cl)nc(NC3CCCCCC3)c2=O)cc1 [1507-29] | 4 |
| Cc1c(Cl)nc(NCc2ccccc2)c(=O)n1CC(=O)NCc1ccc(C(=N)N)cc1 [1471-1] | 10 |
| N=C(N)c1ccc(CNC(=O)Cn2c(-c3ccccc3)c(Cl)nc(NCCc3cccnc3)c2=O)cc1 [1471-16] | 23 |
| N=C(N)c1ccc(CNC(=O)Cn2c(-c3ccccc3)c(Cl)nc(NC3CCCc4ccccc43)c2=O)cc1 (stereo not drawn) [1507-16] | 18 |
| N=C(N)c1ccc(CNC(=O)Cn2c(-c3ccc4c(c3)OCO4)c(Cl)nc(NCCc3ccncc3)c2=O)cc1 [1471-45] | 24 |
| CC(C)Nc1nc(Cl)c(-c2ccc(Cl)nc2)n(CC(=O)NCc2ccc(C(=N)N)cc2F)c1=O [compound 74] | 13 |
| N=C(N)c1ccc(CNC(=O)Cn2c(-c3ccc4c(c3)OCO4)c(Cl)nc(NCc3ccccc3)c2=O)cc1 [1471-41] | 34 |
| N=C(N)c1ccc(CNC(=O)Cn2c(-c3ccccc3)c(Cl)nc(NC3CCC3)c2=O)cc1 [1507-21] | 23 |
| N=C(N)c1ccc(CNC(=O)Cn2c(-c3ccccc3)c(Cl)nc(NCc3ccc(C(F)(F)F)cc3F)c2=O)cc1 [1512-26] | 5 |
